In patent US9663516B2, “Bicyclic-pyrimidinedione compounds” (MyoKardia, Inc., priority 2014, dated 2017):

Target: bovine cardiac myosin (Bos taurus, UniProt Q9BE39)
Assay: Myosin inhibition assay (PK/LDH-coupled ATPase, bovine cardiac myofibrils)
Assay type: biochemical
Details: calcium concentration giving 50% activation, pH 6.8, read-out: bcMF pCa_6 IC50
Protocol: Small molecule agents were assessed for their ability to inhibit the enzymatic activity of bovine cardiac myosin using a biochemical assay that couples the release of ADP (adenosine diphosphate) from cardiac myosin to an enzymatic coupling system consisting of pyruvate kinase and lactate dehydrogenase (PK/LDH) and monitoring the absorbance decrease of NADH (at 340 nm) as a function of time. PK converts ADP to ATP (adenosine triphosphate) by converting PEP (phosphoenolpyruvate) to pyruvate. Pyruvate is then converted to lactate by LDH by converting NADH (nicotinamide adenine dinucleotide) to NAD (oxidized nicotinamide adenine dinucleotide). […] Prior to testing small molecule agents, the bovine myofibrils were assessed for their calcium responsiveness and the calcium concentration that achieves a 50% activation of the myofibril system was chosen as the final condition for assessing the inhibitory activity of the small molecule agents. All enzymatic activity was measured in a buffered solution containing 12 mM PIPES (piperazine-N,N′-bis(2-ethanesulfonic acid), 2 mM magnesium chloride at pH 6.8 (PM12 buffer). Final assay conditions were 1 mg/mL of bovine cardiac myofibrils, 0.4 mM PK/LDH, 50 uM ATP, 0.1 mg/mL BSA (bovine serum albumin), 10 ppm antifoam, 2 mM BME, 0.5 mM NADH, 1.5 mM PEP at the desired free calcium concentration required to achieve 50% activation of the myofibrils.
A dilution series of compound was created in DMSO such that the final desired concentration of compound would be achieved in a volume of 30 μL with a fixed DMSO concentration of 3.3% (v/v). Typically 1 μL of the dilution series were added to 384 well plate to achieve an 10 point dose response. Following the addition of 14 μL of a solution containing bovine cardiac myofibrils, PK/LDH and a solution of calcium (that achieved 50% activation), the enzymatic reaction was started with the addition of 15 μL of a solution containing ATP, PEP and NADH. The reaction progress was followed in a PerkinElmer Envision plate reader at ambient temperature using clear bottom plates. The plate reader was configured to read absorbance at 340 nm in kinetics mode for 15 minutes. Data were recorded as the slope of the absorbance response to time. The slopes of the absorbance response as a function of time were normalized to slopes on the plate containing DMSO. This normalized rate was then plotted as a function of small molecule concentration and the data was fitted to a four-parameter fit using EXCEL XLfit. The IC50 is the concentration at which fifty percent of the total response is inhibited.

Sequence of bovine cardiac myosin (Q9BE39 whole entry): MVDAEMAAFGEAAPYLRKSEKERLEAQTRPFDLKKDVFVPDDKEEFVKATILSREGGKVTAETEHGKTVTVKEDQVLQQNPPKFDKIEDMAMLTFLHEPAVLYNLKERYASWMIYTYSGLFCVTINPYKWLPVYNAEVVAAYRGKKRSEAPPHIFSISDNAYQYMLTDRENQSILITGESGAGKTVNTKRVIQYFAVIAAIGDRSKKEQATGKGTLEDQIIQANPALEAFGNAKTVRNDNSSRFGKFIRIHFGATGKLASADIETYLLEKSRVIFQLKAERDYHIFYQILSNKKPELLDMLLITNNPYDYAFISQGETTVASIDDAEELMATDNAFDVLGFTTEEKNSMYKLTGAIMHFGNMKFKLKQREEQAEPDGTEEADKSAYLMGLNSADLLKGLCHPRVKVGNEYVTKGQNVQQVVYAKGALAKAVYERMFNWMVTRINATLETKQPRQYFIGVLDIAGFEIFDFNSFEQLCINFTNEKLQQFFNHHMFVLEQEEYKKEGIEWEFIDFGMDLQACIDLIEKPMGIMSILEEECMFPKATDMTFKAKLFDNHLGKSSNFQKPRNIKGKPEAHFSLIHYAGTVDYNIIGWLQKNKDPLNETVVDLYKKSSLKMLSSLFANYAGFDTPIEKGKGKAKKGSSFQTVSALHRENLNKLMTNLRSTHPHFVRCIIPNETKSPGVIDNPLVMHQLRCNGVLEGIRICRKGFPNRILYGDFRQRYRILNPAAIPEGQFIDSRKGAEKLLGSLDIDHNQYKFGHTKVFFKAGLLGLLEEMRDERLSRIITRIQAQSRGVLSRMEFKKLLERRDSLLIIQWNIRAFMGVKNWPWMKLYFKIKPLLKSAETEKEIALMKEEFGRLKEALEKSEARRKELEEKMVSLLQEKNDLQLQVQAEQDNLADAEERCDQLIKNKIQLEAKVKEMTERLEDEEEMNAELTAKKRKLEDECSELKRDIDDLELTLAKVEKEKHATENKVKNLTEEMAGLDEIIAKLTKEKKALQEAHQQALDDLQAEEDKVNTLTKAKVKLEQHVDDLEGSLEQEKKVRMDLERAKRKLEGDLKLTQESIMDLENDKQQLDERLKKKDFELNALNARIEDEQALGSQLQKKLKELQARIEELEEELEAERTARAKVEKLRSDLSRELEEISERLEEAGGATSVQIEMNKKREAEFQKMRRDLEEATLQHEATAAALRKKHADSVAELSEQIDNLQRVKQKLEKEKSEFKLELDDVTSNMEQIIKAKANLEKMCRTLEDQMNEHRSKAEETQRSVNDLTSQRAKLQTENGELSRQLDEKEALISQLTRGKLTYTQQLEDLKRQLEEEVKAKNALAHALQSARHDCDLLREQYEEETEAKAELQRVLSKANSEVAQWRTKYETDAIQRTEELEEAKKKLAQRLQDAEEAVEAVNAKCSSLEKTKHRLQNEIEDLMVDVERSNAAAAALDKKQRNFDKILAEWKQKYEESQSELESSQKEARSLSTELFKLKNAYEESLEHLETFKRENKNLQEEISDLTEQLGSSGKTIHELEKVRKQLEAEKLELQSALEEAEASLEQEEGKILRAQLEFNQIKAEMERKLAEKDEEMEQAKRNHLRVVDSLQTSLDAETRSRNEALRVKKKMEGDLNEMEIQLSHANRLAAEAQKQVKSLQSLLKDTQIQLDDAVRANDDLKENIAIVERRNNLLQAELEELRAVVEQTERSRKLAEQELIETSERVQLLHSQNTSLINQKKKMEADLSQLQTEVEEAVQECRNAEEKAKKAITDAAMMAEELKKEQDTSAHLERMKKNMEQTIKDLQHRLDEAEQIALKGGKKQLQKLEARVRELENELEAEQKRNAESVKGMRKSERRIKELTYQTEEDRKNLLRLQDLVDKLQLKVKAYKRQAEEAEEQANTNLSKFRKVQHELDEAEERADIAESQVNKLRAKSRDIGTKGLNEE
Sequence of bovine cardiac myosin (P85100 whole entry partner): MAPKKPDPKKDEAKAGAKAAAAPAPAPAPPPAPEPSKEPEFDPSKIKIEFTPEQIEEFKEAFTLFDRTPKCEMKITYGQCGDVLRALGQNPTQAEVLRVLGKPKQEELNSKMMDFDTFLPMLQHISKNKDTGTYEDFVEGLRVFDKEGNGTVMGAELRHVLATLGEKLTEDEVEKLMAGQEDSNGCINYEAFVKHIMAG
Sequence of bovine cardiac myosin (Q3SZE5 whole entry partner): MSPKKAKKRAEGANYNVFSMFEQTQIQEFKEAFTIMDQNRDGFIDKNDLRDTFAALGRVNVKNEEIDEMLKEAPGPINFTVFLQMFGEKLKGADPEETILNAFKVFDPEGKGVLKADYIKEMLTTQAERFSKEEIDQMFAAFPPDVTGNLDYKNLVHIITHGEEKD

IC50, < 1 µM:
C[C@]1(c2cc(F)ccc2F)CCc2c([nH]c(=O)n(C3CCC3)c2=O)N1 [Compound 134]
CC1(n2c(=O)[nH]c3c(c2=O)CC[C@H](C2CCC(F)(F)CC2)N3)CC1 [Compound 37]
CCn1c(=O)[nH]c2c(c1=O)CC[C@@](c1ccccc1)(C1CCC1)N2 [Compound 145]
O=c1[nH]c2c(c(=O)n1-c1ccccn1)CC[C@H](C1CCC(F)(F)CC1)N2 [Compound 45]
CC(C)Cn1c(=O)[nH]c2c(c1=O)CC[C@H](C1CCC(F)(F)CC1)N2 [Compound 23]
Cc1cccc([C@H]2CCc3c([nH]c(=O)n(C(C)C)c3=O)N2)c1 [Compound 102]
CC(C)n1c(=O)[nH]c2c(c1=O)CC[C@](C)(c1ccc(F)c(F)c1)N2 [Compound 111]
CC(C)n1c(=O)[nH]c2c(c1=O)CC[C@H](c1cccc(Cl)c1)N2 [Compound 12]
CC[C@@H](C)n1c(=O)[nH]c2c(c1=O)CC[C@H](C1CCC(F)(F)CC1)N2 [Compound 78]
CCCn1c(=O)[nH]c2c(c1=O)CC[C@H](C1CCC(F)(F)CC1)N2 [Compound 30]
CC(C)n1c(=O)[nH]c2c(c1=O)CC(F)(F)[C@H](c1cccc(Cl)c1)N2 [Compound 129]
CC(C)n1c(=O)[nH]c2c(c1=O)CC[C@H](Cc1ccccc1)N2 [Compound 66]
CC(C)n1c(=O)[nH]c2c(c1=O)CC[C@@](c1ccccc1)(C(F)F)N2 [Compound 112]
O=c1[nH]c2c(c(=O)n1-c1ccccc1)CC[C@H](C1CCC(F)(F)CC1)N2 [Compound 47]
C[C@]1(c2ccccc2)CCc2c([nH]c(=O)n(-c3ccccc3)c2=O)N1 [Compound 139]
C[C@]1(c2cccc(F)c2)CCc2c([nH]c(=O)n(CC(F)(F)F)c2=O)N1 [Compound 137]

IC50, > 15 µM:
CCn1c(=O)[nH]c2c(c1=O)CC[C@H](c1ccc(F)c(F)c1)CN2 [Compound 84]
O=c1[nH]c2c(c(=O)n1-c1ccccc1)CC[C@@H](c1ccccc1F)N2 [Compound 109]
CC1(n2c(=O)[nH]c3c(c2=O)CC[C@@H](c2ccccc2F)N3)CC1 [Compound 113]
CCn1c(=O)[nH]c2c(c1=O)CC[C@H](c1cc(F)cc(F)c1)N2 [Compound 25]
CCn1c(=O)[nH]c2c(c1=O)CC[C@H](c1c(F)cccc1F)N2 [Compound 75]
CC(C)n1c(=O)[nH]c2c(c1=O)CC(F)(F)[C@@H](c1cccc(Cl)c1)N2 [Compound 130]
O=c1[nH]c2c(c(=O)n1-c1cc(F)cc(F)c1)CC[C@H](C1CC(F)(F)C1)N2 [Compound 42]
CC(C)n1c(=O)[nH]c2c(c1=O)C[C@@H](Cc1ccccc1)N2 [Compound 88]
CCn1c(=O)[nH]c2c(c1=O)CC[C@](c1ccccc1)(C1CCC1)N2 [Compound 146]
CC(C)n1c(=O)[nH]c2c(c1=O)CC[C@@H](c1ccc(F)c(F)c1)N2 [Compound 85]
CC(C)n1c(=O)[nH]c2c(c1=O)CCCN2 [Compound 10, 3-Isopropyl-5,6,7,8-tetrahydropyrido[2,3-d]pyrimidine-2,4(1H,3H)-dione]
CC(C)n1c(=O)[nH]c2c(c1=O)C[C@H](C)[C@H](c1ccccc1)N2 [Compound 92]
CCn1c(=O)[nH]c2c(c1=O)CC[C@H](c1ccccc1)N2 [Compound 64]
COc1cccc([C@@H]2CCc3c([nH]c(=O)n(C(C)C)c3=O)N2)c1 [Compound 93]
O=c1[nH]c2c(c(=O)n1-c1ccccc1)C(O)C[C@H](c1ccc(F)cc1)N2 (stereo partly drawn) [Compound 95, (7R)-7-(4-Fluorophenyl)-5-hydroxy-3-phenyl-5,6,7,8-tetrahydropyrido[2,3-d]pyrimidine-2,4(1H,3H)-dione]
CC(C)[C@H]1CCc2c([nH]c(=O)n(-c3cc(F)cc(F)c3)c2=O)N1 [Compound 44]
Cc1cccc([C@@H]2CCc3c([nH]c(=O)n(C(C)C)c3=O)N2)c1 [Compound 103]
CCn1c(=O)[nH]c2c(c1=O)CCC[C@@H](c1ccc(F)c(F)c1)N2 [Compound 100]
O=c1[nH]c2c(c(=O)n1-c1cc(F)cc(F)c1)C[C@@H](c1ccccc1)N2 [Compound 79]

IC50, 1 to 15 µM:
CC(C)n1c(=O)[nH]c2c(c1=O)CC[C@H](c1cc(F)ccc1F)N2 [Compound 17]
CC1(n2c(=O)[nH]c3c(c2=O)CC[C@H](c2ccccc2F)N3)CC1 [Compound 114]
C/C=C(\C)n1c(=O)[nH]c2c(c1=O)CC[C@H](c1ccccc1)N2 [Compound 55]
CCn1c(=O)[nH]c2c(c1=O)CC[C@H](c1cccc(Cl)c1)N2 [Compound 11, (R)-7-(3-Chlorophenyl)-3-ethyl-5,6,7,8-tetrahydropyrido[2,3-d]pyrimidine-2,4(1H,3H)-dione]
CC(C)n1c(=O)[nH]c2c(c1=O)CCC(c1ccccc1)N2 (stereo not drawn) [Compound 89]
CCn1c(=O)[nH]c2c(c1=O)CC[C@H](c1cc(F)ccc1F)N2 [Compound 74]
CC(C)n1c(=O)[nH]c2c(c1=O)CC(F)(F)[C@](C)(c1ccccc1)N2 [Compound 140]
CCn1c(=O)[nH]c2c(c1=O)CC[C@@](c1ccccc1)(C(C)C)N2 [Compound 131]
CC(C)n1c(=O)[nH]c2c(c1=O)CC[C@H](c1c(F)cccc1F)N2 [Compound 72]
O=c1[nH]c2c(c(=O)n1C1CCOCC1)CC[C@H](c1ccccc1)N2 [Compound 32]
CC1(n2c(=O)[nH]c3c(c2=O)CC[C@H](c2cccc(F)c2)N3)CC1 [Compound 121]
CCn1c(=O)[nH]c2c(c1=O)CC[C@H](c1ccccc1Cl)N2 [Compound 57]
Cc1cccc(-n2c(=O)[nH]c3c(c2=O)CC[C@H](C2CCC(F)(F)CC2)N3)n1 [Compound 38]
CC[C@H](C)n1c(=O)[nH]c2c(c1=O)CC[C@H](C1CCC(F)(F)CC1)N2 [Compound 29]
O=c1[nH]c2c(c(=O)n1CC1CC1)CC[C@H](c1ccc(F)c(F)c1)N2 [Compound 82]
O=c1[nH]c2c(c(=O)n1CC(F)F)CC[C@H](c1cccc(F)c1)N2 [Compound 24]
CC(C)n1c(=O)[nH]c2c(c1=O)CC[C@H](c1cccc(F)c1F)N2 [Compound 76]
O=c1[nH]c2c(c(=O)n1-c1ccccc1)CC[C@H](c1ccccc1)N2 [Compound 26]
COc1cccc([C@H]2CCc3c([nH]c(=O)n(C(C)C)c3=O)N2)c1 [Compound 5, (R)-3-Isopropyl-7-(3-methoxyphenyl)-5,6,7,8-tetrahydropyrido[2,3-d]pyrimidine-2,4(1H,3H)-dione]
Cn1c(=O)[nH]c2c(c1=O)CC[C@](C)(c1cc(F)ccc1F)N2 [Compound 118]
O=c1[nH]c2c(c(=O)n1-c1cc(F)cc(F)c1)CC[C@H](C1CCC(O)CC1)N2 (stereo partly drawn) [Compound 52]
O=c1[nH]c2c(c(=O)n1C1CC1)CC[C@H](C1CCC(F)(F)CC1)N2 [Compound 21]
CCn1c(=O)[nH]c2c(c1=O)CC[C@H](c1cccc(F)c1)N2 [Compound 61]
COc1ccc([C@H]2CCc3c([nH]c(=O)n(C(C)C)c3=O)N2)cn1 [Compound 59]
CCn1c(=O)[nH]c2c(c1=O)CC[C@@H](c1ccc(F)c(F)c1)N2 [Compound 94]
